For experiment [1], the target named is Death-associated protein kinase 3 (Homo sapiens) (UniProt O43293).
For experiment [2], the target named is Serine/threonine-protein kinase PAK 4 (Homo sapiens) (UniProt O96013).
In experiment [3] the target is Ribosomal protein S6 kinase alpha-3 (Homo sapiens) (UniProt P51812).
For experiment [4], the target named is Casein kinase I isoform gamma-1 (Homo sapiens) (UniProt Q9HCP0).
Experiment [5] addresses Serine/threonine-protein kinase pim-1 (Homo sapiens) (UniProt P11309).
Experiment [6] addresses T1, Myotonin-protein kinase (Homo sapiens) (UniProt Q09013).
T1 sequence (whole entry): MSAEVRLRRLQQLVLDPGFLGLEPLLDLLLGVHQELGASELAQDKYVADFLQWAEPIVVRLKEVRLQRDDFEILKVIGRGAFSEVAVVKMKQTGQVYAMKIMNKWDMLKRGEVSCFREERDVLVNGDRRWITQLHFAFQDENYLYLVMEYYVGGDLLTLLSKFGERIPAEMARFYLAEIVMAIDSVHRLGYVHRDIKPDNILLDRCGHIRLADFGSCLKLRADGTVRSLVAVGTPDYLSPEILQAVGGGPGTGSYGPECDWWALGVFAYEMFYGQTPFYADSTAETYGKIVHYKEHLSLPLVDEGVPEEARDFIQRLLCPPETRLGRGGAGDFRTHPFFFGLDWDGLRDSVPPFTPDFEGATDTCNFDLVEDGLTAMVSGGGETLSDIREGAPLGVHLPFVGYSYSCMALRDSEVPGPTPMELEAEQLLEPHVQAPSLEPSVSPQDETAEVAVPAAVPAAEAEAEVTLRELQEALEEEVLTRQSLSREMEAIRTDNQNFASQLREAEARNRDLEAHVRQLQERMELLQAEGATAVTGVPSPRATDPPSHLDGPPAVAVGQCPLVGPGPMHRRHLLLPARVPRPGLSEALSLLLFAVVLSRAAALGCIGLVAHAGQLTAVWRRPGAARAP

The target in experiment [7] is T2, Dual specificity mitogen-activated protein kinase kinase 6 (Homo sapiens) (UniProt P52564).
T2 sequence (whole entry): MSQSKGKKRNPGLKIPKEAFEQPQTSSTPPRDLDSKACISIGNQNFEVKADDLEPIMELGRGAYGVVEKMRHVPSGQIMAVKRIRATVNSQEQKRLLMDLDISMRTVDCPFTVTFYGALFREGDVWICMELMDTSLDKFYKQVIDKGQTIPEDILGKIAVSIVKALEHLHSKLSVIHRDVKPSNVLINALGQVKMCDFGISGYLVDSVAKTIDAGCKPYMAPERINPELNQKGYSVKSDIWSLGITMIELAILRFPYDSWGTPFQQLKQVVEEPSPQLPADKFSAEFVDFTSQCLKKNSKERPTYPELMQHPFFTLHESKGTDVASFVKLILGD

Experiment [8] has as its target T3, Serine/threonine-protein kinase Nek2 (Homo sapiens) (UniProt P51955).
T3 sequence (whole entry): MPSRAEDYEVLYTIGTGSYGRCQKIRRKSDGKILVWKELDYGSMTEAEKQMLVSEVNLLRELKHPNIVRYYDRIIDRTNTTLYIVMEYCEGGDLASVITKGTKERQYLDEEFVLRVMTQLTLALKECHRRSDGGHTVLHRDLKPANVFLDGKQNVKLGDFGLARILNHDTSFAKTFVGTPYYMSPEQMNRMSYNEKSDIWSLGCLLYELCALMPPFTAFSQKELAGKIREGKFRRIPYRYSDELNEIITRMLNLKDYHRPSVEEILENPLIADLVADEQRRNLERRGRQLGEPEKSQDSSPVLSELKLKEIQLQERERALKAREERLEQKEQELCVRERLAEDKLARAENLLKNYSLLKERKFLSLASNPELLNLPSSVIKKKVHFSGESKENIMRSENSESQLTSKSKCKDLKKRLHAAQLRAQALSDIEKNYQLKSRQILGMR

For experiment [9], the target named is Cyclin-dependent kinase 2 (Homo sapiens, UniProt P24941).
Experiment [10] deals with T4, Serine/threonine-protein kinase 4 (Homo sapiens) (UniProt Q13043).
T4 sequence (whole entry): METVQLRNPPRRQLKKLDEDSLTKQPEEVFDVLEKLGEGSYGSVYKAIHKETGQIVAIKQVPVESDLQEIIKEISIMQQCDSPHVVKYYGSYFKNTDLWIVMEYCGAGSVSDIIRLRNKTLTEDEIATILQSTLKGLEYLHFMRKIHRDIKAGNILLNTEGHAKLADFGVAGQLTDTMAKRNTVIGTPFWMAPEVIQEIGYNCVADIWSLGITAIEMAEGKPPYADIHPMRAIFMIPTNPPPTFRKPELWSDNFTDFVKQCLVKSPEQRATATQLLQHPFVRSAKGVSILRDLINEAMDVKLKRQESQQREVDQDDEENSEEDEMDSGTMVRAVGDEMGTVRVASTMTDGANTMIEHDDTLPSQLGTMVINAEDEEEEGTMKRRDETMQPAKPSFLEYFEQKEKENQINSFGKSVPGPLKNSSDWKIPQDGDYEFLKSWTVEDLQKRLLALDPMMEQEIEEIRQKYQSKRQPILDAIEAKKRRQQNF

In experiment [11] the target is Mitogen-activated protein kinase 11 (Homo sapiens, UniProt Q15759).
Chain of Mitogen-activated protein kinase 11 (Q15759 whole entry): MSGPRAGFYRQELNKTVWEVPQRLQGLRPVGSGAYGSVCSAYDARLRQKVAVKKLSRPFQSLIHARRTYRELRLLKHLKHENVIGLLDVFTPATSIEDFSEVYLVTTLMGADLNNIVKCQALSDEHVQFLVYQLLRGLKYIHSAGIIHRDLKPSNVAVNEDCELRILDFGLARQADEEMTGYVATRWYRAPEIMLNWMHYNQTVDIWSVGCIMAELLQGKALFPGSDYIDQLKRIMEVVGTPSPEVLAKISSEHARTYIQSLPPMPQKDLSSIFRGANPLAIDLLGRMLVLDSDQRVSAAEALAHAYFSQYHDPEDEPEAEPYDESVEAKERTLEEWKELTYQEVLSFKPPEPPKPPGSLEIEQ

Chain of Ribosomal protein S6 kinase alpha-3 (Homo sapiens) (P51812 whole entry, canonical isoform): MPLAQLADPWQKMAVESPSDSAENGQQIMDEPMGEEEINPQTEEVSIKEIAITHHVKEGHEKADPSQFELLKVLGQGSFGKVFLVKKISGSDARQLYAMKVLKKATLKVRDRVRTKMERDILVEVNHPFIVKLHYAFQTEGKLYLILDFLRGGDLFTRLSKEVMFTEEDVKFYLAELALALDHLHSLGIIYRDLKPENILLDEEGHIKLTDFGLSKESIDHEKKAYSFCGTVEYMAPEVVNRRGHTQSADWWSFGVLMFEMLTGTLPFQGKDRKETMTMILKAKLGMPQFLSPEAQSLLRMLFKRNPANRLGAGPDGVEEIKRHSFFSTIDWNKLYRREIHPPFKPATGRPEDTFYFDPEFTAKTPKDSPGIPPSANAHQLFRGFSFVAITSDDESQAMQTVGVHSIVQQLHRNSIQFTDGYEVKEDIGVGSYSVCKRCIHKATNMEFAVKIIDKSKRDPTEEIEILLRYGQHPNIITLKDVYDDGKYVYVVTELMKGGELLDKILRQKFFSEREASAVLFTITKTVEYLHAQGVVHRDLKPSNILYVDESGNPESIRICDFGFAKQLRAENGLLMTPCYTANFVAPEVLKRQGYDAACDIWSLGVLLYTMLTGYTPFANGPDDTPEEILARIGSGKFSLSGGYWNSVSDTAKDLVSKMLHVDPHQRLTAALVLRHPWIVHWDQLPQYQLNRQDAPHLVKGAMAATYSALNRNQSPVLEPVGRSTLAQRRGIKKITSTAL
Chain of Casein kinase I isoform gamma-1 (Homo sapiens) (Q9HCP0 whole entry, looked up, canonical isoform): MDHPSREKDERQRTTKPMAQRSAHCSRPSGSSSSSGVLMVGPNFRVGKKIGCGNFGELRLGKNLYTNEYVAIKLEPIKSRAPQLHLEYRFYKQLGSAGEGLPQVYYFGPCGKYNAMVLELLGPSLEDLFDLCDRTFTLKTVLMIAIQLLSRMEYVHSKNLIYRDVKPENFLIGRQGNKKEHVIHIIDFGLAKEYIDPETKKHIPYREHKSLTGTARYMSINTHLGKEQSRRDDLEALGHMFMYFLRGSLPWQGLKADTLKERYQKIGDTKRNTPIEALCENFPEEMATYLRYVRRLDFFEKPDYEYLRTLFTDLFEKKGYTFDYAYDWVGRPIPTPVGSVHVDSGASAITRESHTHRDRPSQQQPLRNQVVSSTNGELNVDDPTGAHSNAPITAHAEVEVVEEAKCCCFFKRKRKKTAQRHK
Chain of Serine/threonine-protein kinase pim-1 (Homo sapiens) (P11309 whole entry, looked up): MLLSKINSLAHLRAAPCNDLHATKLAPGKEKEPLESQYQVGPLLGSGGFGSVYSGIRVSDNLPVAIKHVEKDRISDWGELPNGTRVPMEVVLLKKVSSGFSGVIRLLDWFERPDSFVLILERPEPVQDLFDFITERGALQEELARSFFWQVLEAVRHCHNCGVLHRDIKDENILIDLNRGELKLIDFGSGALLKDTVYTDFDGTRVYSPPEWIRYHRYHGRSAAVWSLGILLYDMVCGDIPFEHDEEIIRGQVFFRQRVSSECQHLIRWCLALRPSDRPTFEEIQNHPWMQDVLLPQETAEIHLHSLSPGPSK
Chain of Death-associated protein kinase 3 (Homo sapiens) (O43293 whole entry, looked up): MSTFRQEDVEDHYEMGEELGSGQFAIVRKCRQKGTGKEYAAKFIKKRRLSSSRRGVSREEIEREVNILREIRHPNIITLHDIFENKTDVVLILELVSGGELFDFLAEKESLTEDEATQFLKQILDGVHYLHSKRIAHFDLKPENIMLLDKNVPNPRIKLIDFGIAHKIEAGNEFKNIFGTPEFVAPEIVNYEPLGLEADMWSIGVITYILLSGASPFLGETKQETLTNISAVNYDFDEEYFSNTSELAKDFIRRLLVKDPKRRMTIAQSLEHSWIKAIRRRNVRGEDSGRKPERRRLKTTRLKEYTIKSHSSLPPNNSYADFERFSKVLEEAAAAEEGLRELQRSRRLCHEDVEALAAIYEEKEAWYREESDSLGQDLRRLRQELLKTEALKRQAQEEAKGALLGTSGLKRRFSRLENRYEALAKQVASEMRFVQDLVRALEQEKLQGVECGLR
Chain of Serine/threonine-protein kinase PAK 4 (Homo sapiens) (O96013 whole entry, looked up): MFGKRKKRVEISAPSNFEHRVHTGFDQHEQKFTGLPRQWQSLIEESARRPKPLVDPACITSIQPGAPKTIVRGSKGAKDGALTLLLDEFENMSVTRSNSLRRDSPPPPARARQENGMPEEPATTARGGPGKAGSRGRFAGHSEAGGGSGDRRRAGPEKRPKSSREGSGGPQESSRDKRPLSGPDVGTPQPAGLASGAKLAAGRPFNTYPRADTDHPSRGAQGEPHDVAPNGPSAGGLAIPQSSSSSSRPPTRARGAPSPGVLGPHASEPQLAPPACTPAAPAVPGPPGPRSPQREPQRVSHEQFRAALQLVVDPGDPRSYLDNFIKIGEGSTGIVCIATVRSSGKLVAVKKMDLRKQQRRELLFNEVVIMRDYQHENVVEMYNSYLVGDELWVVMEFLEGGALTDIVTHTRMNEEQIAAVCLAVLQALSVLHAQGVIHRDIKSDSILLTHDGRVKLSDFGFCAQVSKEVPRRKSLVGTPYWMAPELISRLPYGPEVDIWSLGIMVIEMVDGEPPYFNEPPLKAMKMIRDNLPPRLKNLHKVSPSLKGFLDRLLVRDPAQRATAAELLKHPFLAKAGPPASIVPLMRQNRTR

As a reminder, the ΔTm is the shift of the melting midpoint relative to a reference. Consider `O=C(O)Cc1ccc(O)c([N+](=O)[O-])c1`, for which the ΔTm in experiment [1] turned out to be 0.5 °C; in experiment [2], 1.2 °C; in [3], 1.1 °C; in [4] it was 0.3 °C; in experiment [5], 0.2 °C; in [6], 1.6 °C. For the same compound, the ΔTm is 0 °C in [7]; 1.9 °C in experiment [8]; 1.1 °C in experiment [9]; 0.4 °C in experiment [10]; 0.8 °C in [11].

For the compound `O=c1cc(-c2ccc(O)cc2)oc2cc(O)cc(O)c12`, the thermal shift (ΔTm) in experiment [1] came to 3.5 °C; in experiment [2], 0.3 °C; in experiment [3], 2.4 °C; in [4] it was 1.4 °C; in experiment [5], 3.7 °C; in experiment [6] it was 0.6 °C. In addition, the ΔTm in experiment [7] was found to be 2.2 °C; in experiment [8] it was 1.4 °C; in experiment [9] it was 2.3 °C; in [10], 2.8 °C; in experiment [11] it was 1.7 °C.

For `Cn1cc(C2=C(c3cn(CCCN)c4ccccc34)C(=O)NC2=O)c2ccccc21`, the shift in melting temperature (ΔTm) stood at 2.5 °C in [1]; 4.3 °C in [2]; 1.9 °C in experiment [3]; 0.5 °C in experiment [4]; 8.3 °C in experiment [5]; 6.9 °C in experiment [6]. Also, the ΔTm is 0.8 °C in experiment [7]; 0.9 °C in experiment [8]; 3 °C in experiment [9]; 2.2 °C in [10]; 0.5 °C in experiment [11].

Turning to `Cn1cc(/C=C2/C(=O)Nc3ccc(S(N)(=O)=O)cc32)c2ccccc21`, the thermal shift (ΔTm) in experiment [1] was 0.3 °C; in experiment [2], 3.7 °C; in [3], 4.8 °C; in experiment [4] it was -0.9 °C; in experiment [5] it was 3.1 °C; in [6], 3.7 °C. Also, the ΔTm in experiment [7] is 10.3 °C; in experiment [8], 0.9 °C; in [9] it was 1.3 °C; in [10], -0.4 °C; in [11], 0.2 °C.

Regarding `O=c1ccc2ccc(O)c(O)c2o1` [DAPHNETIN], the ΔTm is -0.6 °C in experiment [1]; 0 °C in experiment [2]; 0.1 °C in experiment [3]; 0 °C in experiment [4]; 0.2 °C in [5]; -0.6 °C in experiment [6]. Also, the ΔTm in experiment [7] was 0.1 °C; in experiment [8], 0.7 °C; in experiment [9] it was 0.7 °C; in experiment [10], 0 °C; in experiment [11], -0.7 °C.

`N#C/C(=C\c1ccc(O)c(O)c1)C(=O)NCc1ccccc1`: the ΔTm in [1] was 1.8 °C; in experiment [2] it was -0.1 °C; in experiment [3], 1.2 °C; in experiment [4], 0.4 °C; in experiment [5], 2.1 °C; in experiment [6] it was -0.6 °C. Besides, the ΔTm in experiment [7] turned out to be 0.4 °C; in experiment [8], 0.7 °C; in experiment [9] it was 0.9 °C; in experiment [10], 0.4 °C; in [11], 0.4 °C.

Regarding `O=C(O)c1cc(NCc2cc(O)ccc2O)ccc1O`, the thermal shift (ΔTm) in [1] was -0.4 °C; in [2], 0 °C; in [3], 0.3 °C; in experiment [4], 0.6 °C; in [5] it was 0 °C; in experiment [6], 0.3 °C. Also, the ΔTm in [7] is -0.2 °C; in experiment [8], 0.7 °C; in experiment [9], 0.4 °C; in [10] it was -0.6 °C; in experiment [11], 0.2 °C.

For the compound `C#Cc1cccc(Nc2ncnc3cc(OCCOC)c(OCCOC)cc23)c1`, the ΔTm in experiment [1] was 1.2 °C; in experiment [2], 1.6 °C; in experiment [3], 6.3 °C; in [4] it was 0.5 °C; in experiment [5], 0 °C; in experiment [6], 3.4 °C. The ΔTm in [7] was 0.2 °C; in [8], 1 °C; in [9], -0.6 °C; in [10], 0.5 °C; in experiment [11], 0 °C.

These data come from ChEMBL document CHEMBL1145498, “A systematic interaction map of validated kinase inhibitors with Ser/Thr kinases” (Proc Natl Acad Sci U S A, 2007).
